Test results: patent US8058242B2, “Chimeric proteins with natriuretic activity” (The University of Queensland, priority 2004, dated 2011)
Positions of bridges follow the written chain, without caps; N, C: chain ends. Residues, ends and D or L forms follow the SMILES beside them.

Legend:
rat GC-A = molecular target: T1, rat GC-A (Rattus norvegicus, UniProt P18910); test: Cell cyclic GMP elevations in HEK-293 cells stably expressing rat GC-A (Example 4); format: cell-based; conditions: 0.1 μM; 293 cells over-expressing GC-A
T1 construct: expressed in transfected cells
T1 sequence (P18910 29-1057): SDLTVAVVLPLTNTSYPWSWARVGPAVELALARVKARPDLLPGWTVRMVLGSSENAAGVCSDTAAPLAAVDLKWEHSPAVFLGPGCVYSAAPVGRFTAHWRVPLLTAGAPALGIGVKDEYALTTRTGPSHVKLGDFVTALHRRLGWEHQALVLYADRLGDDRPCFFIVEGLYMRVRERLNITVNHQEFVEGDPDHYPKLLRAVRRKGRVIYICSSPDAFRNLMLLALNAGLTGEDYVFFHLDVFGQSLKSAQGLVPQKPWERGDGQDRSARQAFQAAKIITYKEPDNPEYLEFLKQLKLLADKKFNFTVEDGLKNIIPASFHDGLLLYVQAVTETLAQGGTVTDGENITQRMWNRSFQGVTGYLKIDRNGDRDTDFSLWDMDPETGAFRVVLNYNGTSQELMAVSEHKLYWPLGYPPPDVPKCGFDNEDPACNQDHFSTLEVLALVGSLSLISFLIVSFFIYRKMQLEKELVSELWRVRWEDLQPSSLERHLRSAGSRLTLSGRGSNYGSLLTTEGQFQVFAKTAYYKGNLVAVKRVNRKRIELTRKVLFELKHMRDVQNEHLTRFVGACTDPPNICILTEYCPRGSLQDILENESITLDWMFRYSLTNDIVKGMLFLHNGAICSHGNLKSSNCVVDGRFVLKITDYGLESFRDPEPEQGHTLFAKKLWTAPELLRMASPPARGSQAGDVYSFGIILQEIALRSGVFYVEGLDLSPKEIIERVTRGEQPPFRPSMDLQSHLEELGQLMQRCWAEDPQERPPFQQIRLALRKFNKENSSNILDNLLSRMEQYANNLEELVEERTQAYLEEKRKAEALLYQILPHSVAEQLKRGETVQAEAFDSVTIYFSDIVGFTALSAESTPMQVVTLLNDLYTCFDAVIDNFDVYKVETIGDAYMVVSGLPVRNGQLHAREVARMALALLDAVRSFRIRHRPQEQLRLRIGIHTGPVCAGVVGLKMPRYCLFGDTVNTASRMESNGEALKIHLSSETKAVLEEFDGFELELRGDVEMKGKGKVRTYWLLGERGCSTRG
Source text: The human embryonic kidney 293 (HEK-293) cell line was used for the stable expression of rat GC-A (GC-A/293). Cells expressing rat GC-A (GC-A/293) in the HEK-293 cell line were as previously described (Potter L. R., and Garbers D. L., (1992), J Biol Chem. 26, 14531-4) and determination of cGMP elevations was undertaken as previously described (Chrisman et al. T. D., Schulz, S., Potter, L. R. and Garbers, D. L., (1993,) J. Biol. Chem. (1993) 268 (5), 3698-3703). Responses were expressed as a percentage of the effect produced by ANP.

[1] = Stability assay in rat plasma (Example 6); format: in vitro ADME; conditions: 24 h at 37° C., read-out: peptide remaining in plasma
Description: (§1) Stability assay in human and rat plasma: Human or rat plasma (sample size 200 μL) was incubated at 37° C. for 5 min. 50 μL peptide stock solution (5 mg/mL) was added to the plasma. The vortexed reaction mixture was incubated at 37° C. Sample aliquots of 30 μL were taken from the reaction mixture at sequential intervals of 0 h, 1 h, 2 h, 4 h and 24 h and the sample reaction quenched immediately with 30 μL extraction buffer containing 50% Acetonitrile, 50% 0.1 M NaCl and 1% TFA. The quenched aliquots were cooled in ice for 5 min prior to centrifugation at 14,000 rpm for 15 min. 20 μl of the supernatant from each of the centrifuged aliquots was injected into RP-HPLC for analysis.

[2] = system: rats with chronic heart failure; test: Rat model of chronic heart failure, left coronary artery occlusion, anesthetized (Example 10); conditions: HF rats
normal rats = test: Hemodynamic parameters in normal anesthetized rats (Example 10)
[3] = Stability assay in human plasma (Example 6); format: in vitro ADME; conditions: 24 h at 37° C., read-out: peptide remaining in plasma
Description: Plasma preparation: Blood samples (from healthy human volunteers) were drawn into a sealed tube containing ethylene diamine tetra-acetic acid (EDTA). After sampling, the plasma was separated by centrifugation at 14,000 rpm for 30 min. Plasma was taken out and stored in separated Eppendorf tubes at −20° C.
as §1

## CC[C@H](C)[C@H](NC(=O)[C@H](CCCCN)NC(=O)[C@H](CO)NC(=O)[C@H](CC(=O)O)NC(=O)[C@@H](N)CO)C(=O)NCC(=O)N[C@@H](CC(N)=O)C(=O)NCC(=O)N[C@H]1CSSC[C@@H](C(=O)N[C@@H](CC(N)=O)C(=O)N[C@@H](CCCNC(=N)N)C(=O)N[C@H](C(=O)N[C@@H](CCSC)C(=O)N[C@@H](CCC(N)=O)C(=O)N[C@@H](CC(N)=O)C(=O)N2CCC[C@H]2C(=O)N2CCC[C@H]2C(=O)N[C@@H](CCCCN)C(=O)N[C@@H](CCCCN)C(=O)N[C@@H](Cc2ccccc2)C(=O)N[C@@H](CO)C(=O)NCC(=O)N[C@@H](CCC(=O)O)C(=O)O)[C@@H](C)CC)NC(=O)CNC(=O)[C@H](CC(C)C)NC(=O)CNC(=O)[C@H](CO)NC(=O)[C@H](C(C)C)NC(=O)[C@H](CO)NC(=O)CNC(=O)[C@H]([C@@H](C)CC)NC(=O)[C@H](CCCNC(=N)N)NC(=O)[C@H](CC(=O)O)NC(=O)[C@H](CC(C)C)NC(=O)[C@@H]2CCCN2C(=O)[C@H](Cc2ccccc2)NC(=O)CNC(=O)[C@H](Cc2ccccc2)NC1=O [TNPc] (H-SDSKIGNGCFGFPLDRIGSVSGLGCNRIMQNPPKKFSGE-OH; disulfide 9-25)
Rat GC-A
  cGMP elevations, percentage of the effect produced by ANP: equipotent to ANP and DNP
[1]
  remaining at 24 h, 1 mg/mL: 76%
[2]; 50 pmol/kg/min, 30 min
  Blood Flow, mean change from control: -1.6 mL/min
  Conductance, mean change from control: −0.2 ml/min/mmHg
  Diastolic LVP, mean change from control: −0.9 mmHg
  HCT, mean change from control: 1.5%
  HR, mean change from control: −5.2 bpm
  Mean BP, mean change from control: −11.8 mmHg
  Urine Flow, mean change from control: 1.0 mL/h
[2]; 100 pmol/kg/min, 30 min
  Blood Flow, mean change from control: -2.9 mL/min
  Conductance, mean change from control: −0.4 ml/min/mmHg
  Diastolic LVP, mean change from control: −1.6 mmHg
  HCT, mean change from control: 2.4%
  HR, mean change from control: −14.8 bpm
  Mean BP, mean change from control: −20.1 mmHg
  Urine Flow, mean change from control: 1.7 mL/h
[2]; Recovery
  Blood Flow, mean change from control: -0.5 mL/min
  Conductance, mean change from control: 0.6 ml/min/mmHg
  Diastolic LVP, mean change from control: −1.4 mmHg
  HCT, mean change from control: 0.8%
  HR, mean change from control: −16.5 bpm
  Mean BP, mean change from control: −13.6 mmHg
  Urine Flow, mean change from control: 0.9 mL/h
[2]; average of the two doses
  Blood Flow, Average drug response SED: -2.2 ± 0.5 mL/min
  Conductance, Average drug response SED: −0.3 ± 0.3 ml/min/mmHg
  Diastolic LVP, Average drug response SED: −1.2±0.5 mmHg
  HCT, Average drug response SED: 1.9 ± 0.5%
  HR, Average drug response SED: −10.0 ± 6.9 bpm
  Mean BP, Average drug response SED: −15.9±4.1 mmHg
Normal rats; 50 pmol/kg/min, 30 min
  Blood Flow, mean change from control: -5.2 mL/min
  Conductance, mean change from control: −1.1 ml/min/mmHg
  Diastolic LVP, mean change from control: −1.4 mmHg
  HCT, mean change from control: −1.7%
  HR, mean change from control: −13.5 BPM
  Mean BP, mean change from control: −21.0 mmHg
  Urine Flow, mean change from control: 0.4 mL/h
Normal rats; 100 pmol/kg/min, 30 min
  Blood Flow, mean change from control: -7.3 mL/min
  Conductance, mean change from control: −2.1 ml/min/mmHg
  Diastolic LVP, mean change from control: −0.9 mmHg
  HCT, mean change from control: −3.5%
  HR, mean change from control: −23.6 BPM
  Mean BP, mean change from control: −25.9 mmHg
  Urine Flow, mean change from control: 0.9 mL/h
Normal rats; Recovery
  Blood Flow, mean change from control: -3.0 mL/min
  Conductance, mean change from control: −1.3 ml/min/mmHg
  Diastolic LVP, mean change from control: −0.6 mmHg
  HCT, mean change from control: 3.1%
  HR, mean change from control: −17.9 BPM
  Mean BP, mean change from control: −4.1 mmHg
  Urine Flow, mean change from control: 0.6 mL/h
Normal rats; average of the two doses
  Blood Flow, Average drug response SED: -6.2 mL/min
  Conductance, Average drug response SED: −1.6 ml/min/mmHg
  Diastolic LVP, Average drug response SED: −1.1 mmHg
  HCT, Average drug response SED: −2.6%
  HR, Average drug response SED: −18.6 BPM
  Mean BP, Average drug response SED: −23.5 mmHg
  Urine Flow, Average drug response SED: 0.7 mL/h
[3]
  remaining at 24 h, 1 mg/mL: 72%
